US9028890B2, “Composition for improving sexual wellness” (Horphag Research (IP) Pre Ltd., priority 2010, dated 2015)

Key:
[1] = system: Adult women of all ages with a score lower than four points for all five domains; experiment: Women responding by FSFI: score equal to or higher than four points for all five domains after four weeks (Examples 3, 5, 6); format: in vivo, human; conditions: daily supply, four weeks treatment
From the text: Women's sexual function is scored using the established “Female Sexual Function Index” (FSFI) questionnaire [Rosen et al., 2000]. The questionnaire allows to score prevalence of six subcategories (domains) related to female sexual function, with minimum and maximum scores given:
Adult women of all ages were investigated who presented with a score lower than four points out of maximum six points for all five domains.
The investigation depicts the number of responders to the intervention as detailed in the tables after four weeks treatment with a score equal to or higher than four points for all five domains.

postmenopausal women [2] = conditions: taken together with supplemental hormones, cited from earlier work
postmenopausal women [3] = conditions: cited from earlier work

SMILES: N=C(N)NCCC[C@H](N)C(=O)O [2.8 g L-arginine, L-arginine]
- Responders (women responding with improvement / n) [1]: 5/26

SMILES: CCCc1nn(C)c2c(=O)[nH]c(-c3cc(S(=O)(=O)N4CCN(C)CC4)ccc3OCC)nc12 [sildenafil]
- women who reported improved genital sensations (postmenopausal women [2]; 202 postmenopausal women, placebo group 43 percent): 57%
- group members who reported greater satisfaction with sex (postmenopausal women [2]; placebo group 27 percent): Forty-one
- treatment of SD (postmenopausal women [3]): not effective
